Laboratory results from patent US20100048727A1, “PERFLUOROKETONE COMPOUNDS AND USES THEREOF” (priority 2007, published 2010).

Tests used:
GVIA iPLA2 = target: T1, GVIA iPLA2 (Homo sapiens, UniProt O60733); test: standard GVIA iPLA2 activity assay (DPPC/Triton X-100 mixed micelles); format: biochemical; details: 0.091 mole fraction; mean and standard error, n = 3
T1 sequence (O60733 1-806): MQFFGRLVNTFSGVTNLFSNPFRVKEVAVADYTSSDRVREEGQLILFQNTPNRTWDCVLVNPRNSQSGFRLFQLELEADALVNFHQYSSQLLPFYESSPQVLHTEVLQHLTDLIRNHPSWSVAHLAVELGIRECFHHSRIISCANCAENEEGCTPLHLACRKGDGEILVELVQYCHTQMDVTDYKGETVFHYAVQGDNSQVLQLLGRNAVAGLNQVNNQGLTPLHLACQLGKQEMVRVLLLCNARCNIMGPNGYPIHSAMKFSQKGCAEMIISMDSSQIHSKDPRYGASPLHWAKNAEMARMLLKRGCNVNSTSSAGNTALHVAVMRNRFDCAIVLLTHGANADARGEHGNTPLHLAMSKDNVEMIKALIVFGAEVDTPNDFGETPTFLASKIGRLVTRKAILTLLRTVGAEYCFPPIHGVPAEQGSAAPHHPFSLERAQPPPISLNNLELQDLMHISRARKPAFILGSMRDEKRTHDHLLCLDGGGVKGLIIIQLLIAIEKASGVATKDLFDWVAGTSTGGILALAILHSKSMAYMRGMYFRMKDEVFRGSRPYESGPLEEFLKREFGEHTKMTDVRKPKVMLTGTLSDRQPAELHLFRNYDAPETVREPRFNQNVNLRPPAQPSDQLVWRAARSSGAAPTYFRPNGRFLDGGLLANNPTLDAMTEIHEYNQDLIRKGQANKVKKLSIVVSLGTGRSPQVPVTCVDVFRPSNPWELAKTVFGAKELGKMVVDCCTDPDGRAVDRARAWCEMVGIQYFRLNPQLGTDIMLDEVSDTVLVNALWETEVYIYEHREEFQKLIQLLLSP
Protocol: Inhibition of phospholipase A2 by perfluoroketone compounds. […] (2002) J. Med. Chem. 45: 2891-2893; Kokotos, G. et al. (2004). J. Med. Chem. 47: 3615-3628). The standard GVIA iPLA2 activity assay utilizes DPPC/Triton™ X-100 mixed micelles at a ratio of 1:4 as previously described (Stephens D. et al. (2006). J. Med. Chem., 49: 2821-2828). GV sPLA2 activity was measured in an assay similar to the assays for GIVA cPLA2 and GVIA iPLA2.

EAE-induced SJL/J mice = test: Clinical course of EAE in SJL/J mice treated with fluoroketone compounds; format: in vivo

**Q.** How did the “Average percent inhibition GVIA iPLA2” value (GVIA iPLA2) turn out when `O=C(CCCCc1ccccc1)C(F)(F)C(F)(F)F` [FKGK11, 1,1,1,2,2-Pentafluoro-7-phenyl-3-heptanone] was run?
**A.** 98 ± 16%

**Q.** What about the “clinical disability score between days 22-27” value (EAE-induced SJL/J mice; delayed treatment from day 11, 5-point scale) of the same molecule?
**A.** 0.8

**Q.** And the “maximal clinical disability score” value (EAE-induced SJL/J mice; delayed treatment from day 11, on day 17, 5-point scale)?
**A.** 1.4

**Q.** And the “clinical disability score at second peak” value (EAE-induced SJL/J mice; delayed treatment from day 11, on day 30, 5-point scale)?
**A.** 1.2

**Q.** What about the “severity and progression of the disease (EAE)” value (EAE-induced SJL/J mice; delayed treatment from day 11 after immunization, 2 weeks, i.p., vs vehicle) of the same molecule?
**A.** marked reduction

**Q.** What about the “maximum clinical disability score” value (EAE-induced SJL/J mice; treatment before onset of symptoms, daily for 3 weeks from day 6, course until day 40, 5-point scale) of the same molecule?
**A.** 1.0 grade

**Q.** And the “clinical severity and progression of EAE” value (EAE-induced SJL/J mice; treatment before onset of symptoms, daily for 3 weeks from day 6, vs vehicle)?
**A.** marked reduction
